Earlier results as cited in patent US20200268817A1, “CANNABINOID COMPOSITIONS, METHODS OF MANUFACTURE AND USE THEREOF” (priority 2016, published 2020).
Where two headings read alike, the source gives them in different places.

Columns and labels:
[1] = tested on: peripheral blood mononuclear cells; details: added to peripheral blood mononuclear cells in vitro
[2] = tested on: advanced cancer patients with substantial appetite loss; details: 469 advanced cancer patients; p=0.0001
patients [3] = details: Phase III study (31)
CB2 = CB2 (Homo sapiens, UniProt P34972)
CB2, sequence (P34972 whole entry, species assumed): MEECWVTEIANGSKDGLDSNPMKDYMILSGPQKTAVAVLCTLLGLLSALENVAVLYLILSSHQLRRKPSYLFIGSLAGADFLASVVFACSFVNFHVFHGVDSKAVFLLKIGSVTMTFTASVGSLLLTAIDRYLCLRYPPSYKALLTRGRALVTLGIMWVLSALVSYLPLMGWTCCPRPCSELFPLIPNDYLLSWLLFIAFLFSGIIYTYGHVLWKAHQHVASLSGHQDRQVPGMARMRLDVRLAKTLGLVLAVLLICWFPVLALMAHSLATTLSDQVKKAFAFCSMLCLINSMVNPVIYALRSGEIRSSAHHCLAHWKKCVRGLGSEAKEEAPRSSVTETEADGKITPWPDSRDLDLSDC

[4] = tested on: patients with acute paranoid schizophrenia; details: for psychotic symptoms (Brief Psychiatric Rating Scale, Positive and Negative Syndrome Scale): after 2 and 4 weeks, 42 patients
[5] = tested on: synovial cells isolated from mice
schizophrenic patients = details: over six weeks
prostaglandin E2 = details: more potent than aspirin
advanced cancer patients = details: patients receiving chemotherapy; compared to placebo
patients [6] = details: low cannabinoid dosages; vs placebo

Compound: O=c1cc(-c2ccc(O)c(O)c2)oc2cc(O)cc(O)c12 [Luteolin]
- production of TNFa, IL-lb, and IL-6 [1]: suppress

Compound: CC(=O)O[C@]1(C(C)=O)CC[C@H]2[C@@H]3C=C(C)C4=CC(=O)CC[C@]4(C)[C@H]3CC[C@@]21C [megestrol acetate]
- patients reporting appetite improvement [2]: 75%
- true response (weight gain of >=10% from baseline weight) (patients [3]): 11%

Compound: C=C1CC/C=C(\C)CC[C@@H]2[C@@H]1CC2(C)C [Beta caryophyllene, Beta-caryophyllene]
- TNF alpha and IL-lb expression (human peripheral blood): inhibits
- binding to CB2 (CB2): binds

Compound: C=C(C)[C@@H]1CCC(C)=C[C@H]1c1c(O)cc(CCCCC)cc1O [CBD, Cannabidiol]
- side effects (extrapyramidal symptoms, increase in prolactin, weight gain) compared to amisulpride ([4]; 4 week trial): significantly fewer side effects
- psychotic symptoms (Brief Psychiatric Rating Scale, Positive and Negative Syndrome Scale) [4]: significant decrease of psychotic symptoms
- release of TNF-alpha [5]: suppressed
- positive and cognitive symptoms (schizophrenic patients; add-on to anti-psychotic, 88 patients): improved positive and cognitive symptoms
- adverse effects (schizophrenic patients): no severe adverse effects
- affinity for CB2 receptor (CB2): very low affinity

Compound: CCN1CCCC1CNC(=O)c1cc(S(=O)(=O)CC)c(N)cc1OC (centres unmarked) [amisulpride]
- psychotic symptoms (Brief Psychiatric Rating Scale, Positive and Negative Syndrome Scale) [4]: significant decrease of psychotic symptoms

Compound: COc1cc(-c2cc(=O)c3c(O)c(C/C=C(\C)CCC=C(C)C)c(O)cc3o2)ccc1O [Cannaflavin A]
- potency as inhibitor of prostaglandin E2 relative to aspirin (prostaglandin E2): 30 ×

Compound: CCCCCc1cc(O)c2c(c1)OC(C)(C)[C@@H]1CCC(C)=C[C@@H]21 [dronabinol]
- patients with decreased nausea (cancer patients; cancer patients, placebo 7%): 20%
- patients with increased appetite (cancer patients; cancer patients, placebo 8%): 38%
- patients who gained >=2 kg (cancer patients; placebo 10.5%, did not reach significance): 22%
- patients reporting appetite improvement [2]: 49%
- true response (weight gain of >=10% from baseline weight) (patients [3]): 3%
- taste and smell perception, appetite and caloric intake (advanced cancer patients): improvement

Compound: CCCCCc1cc(O)c2c(c1)OC(C)(C)[C@@H]1CCC(C)=C[C@@H]21 [THC, Tetrahydrocannabinol]
- start of psychotropic effects (inhaled): within seconds to a few minutes
- time to maximum psychotropic effects (inhaled): 15 to 30 min
- time until psychotropic effects taper off (inhaled): 2 to 3 h
- delay until psychotropic effects set in (oral ingestion): 30 to 90 min
- time to maximum psychotropic effects (oral ingestion): 120 to 180 min
- duration of psychotropic effects (oral ingestion, depending on dose and specific effect): 4 to 12 h
- differences between the groups in improvement in appetite or weight-gain (patients [6]): No significant differences
